The test system of test [1] is CEM/dCK-. In words: 3H-TdR (3H-thymidine) incorporation assay at 72 hr. The class given is cell-based. The settings on record: for IC50: deoxycytidine kinase-deficient CCRF-CEM. As to the method:
(§1) Table of IC50 Values (μM) for Controls
(§2) Exposition of 24 hr to drug, wash, incubated for another 48 hr (total of 72 hr assay)
(§3) (3H-Thymidine Incorporation Assay)

Test [2] concerns H-460. In words: 3H-TdR (3H-thymidine) incorporation assay at 72 hr. The class given is cell-based, Human. The settings on record: 3H-TdR incorporation at 72 hr.
Test [3] concerns MCF-7. In words: 3H-TdR (3H-thymidine) incorporation assay at 72 hr. The class given is cell-based, Human. The settings on record: 3H-TdR incorporation at 72 hr.
Test [4] has as its system SF-268. In words: 3H-TdR (3H-thymidine) incorporation assay at 72 hr. The class given is cell-based, Human. The settings on record: 3H-TdR incorporation at 72 hr.
For test [5], the system named is CCRF-CEM. In words: 3H-TdR (3H-thymidine) incorporation assay at 72 hr. The class given is cell-based. The settings on record: 3H-TdR incorporation at 72 hr. As to the method: as §1, §2, §3
The subject of test [6] is CEM/dCK-. In words: 3H-TdR incorporation at 72 hr (24 hr drug exposure, wash, 48 hr). The class given is cell-based. The settings on record: read-out: IC50 in μM (3H-TdR incorporation at 72 hr) CEM/dCK- 24 h; CCRF-CEM deoxycytidine kinase-deficient; 24 h drug exposure, 72 hr assay. As to the method:
as §2, §3

Where [7] appears, read: Homo sapiens, CCRF-CEM, read-out: IC50 CEM/dCK- 24 h, 24 h drug exposure, wash, another 48 hr.
The mark [8] stands for this setting: Homo sapiens, NCI-H460, read-out: IC50 H-460 24 h, 24 h drug exposure, wash, another 48 hr.
The mark [9] stands for this setting: read-out: IC50 H-460 24 h, 24 h drug exposure, wash, another 48 hr.
The mark [10] stands for this setting: Homo sapiens, SF-268, read-out: IC50 SF-268 24 h, 24 h drug exposure, wash, another 48 hr.
[11] abbreviates: Homo sapiens, MCF7, read-out: IC50 MCF-7 24 h, 24 h drug exposure, wash, another 48 hr.
Where [12] appears, read: read-out: IC50 MCF-7 24 h, 24 h drug exposure, wash, another 48 hr.
The mark [13] stands for this setting: Homo sapiens, CCRF-CEM, read-out: IC50 CCRF-CEM 24 h, 24 h drug exposure, wash, another 48 hr.
Where [14] appears, read: read-out: IC50 CCRF-CEM 24 h, 24 h drug exposure, wash, another 48 hr.
Setting [15] is: read-out: IC50 CEM/dCK- 24 h, 24 h drug exposure, wash, another 48 hr.

“And” between values parts separate entries of the source, which are not always exact repeats. Equal values may be shown once. Read-outs that look alike come from different tables or passages of the source.

For the compound `Cc1cccc(C)c1C(=O)OC[C@H]1OC[C@@H](n2ccc(/N=C\N(C)C)nc2=O)O1` [Compound 87, (2S,4S)-2-(2″,6″- DIMETHYLBENZOYLOXYMETHY L)-4-(4′-N,N- DIMETHYLAMINOMETHLYENE- CYTOSIN-1′-YL)-1,3- DIOXOLANE], in test [1] (setting [7]), the IC50 is above 100000 nM.

As to `CC(C)c1cc(C(C)C)c(C(=O)OC[C@H]2OC[C@@H](n3ccc(N)nc3=O)O2)c(C(C)C)c1` [Compound 100, 2,4,6-Triisopropyl-benzoic acid 4-(4-amino-2-oxo-2H-pyrimidin-1-yl)-[1,3]dioxolan-2-ylmethyl ester], the IC50 in test [2] (setting [8]) was 30 nM; in test [2] (setting [9]), 44 nM.

As to `CC(=O)OC[C@H]1OC[C@@H](n2ccc(N)nc2=O)O1` [Compound 27], the IC50 in test [2] (read-out: IC50 H-460 (72 h), 72 h exposure) was found to be 5.3 nM; in test [3] (read-out: IC50 MCF-7 (72 h), 72 h exposure), 7.3 nM; in test [4] (read-out: IC50 SF-268 (72 h), 72 h exposure), 23 nM.

For the compound `CC(C(=O)OC[C@H]1OC[C@@H](n2ccc(N)nc2=O)O1)c1ccccc1.Cl` (stereo partly drawn) [Compound 106], the “Factor* (Resistance Factor = Ratio of dCK- on Wild-type CCRF-CEM)” value in test [1] (ratio of IC50 CEM/dCK- to CCRF-CEM, 24 h) is listed as 4,600.

As for `CCNc1ccn([C@@H]2CO[C@H](COCC)O2)c(=O)n1` [Compound 93, 1-(2′(S)-ETHOXYMETHYL- [1,3]DIOXOLAN-4′(S)- YL)-4-ETHYLAMINO-1H- PYRIMIDIN-2-ONE], the IC50 in test [4] (setting [10]) and in test [1] (setting [7]) was above 100000 nM each time.

Regarding `CCCCC(C)(C)C(=O)OC[C@H]1OC[C@@H](n2ccc(/N=C\N(C)C)nc2=O)O1` [Compound 72, (2S,4S)-2-(2″- DIMETHYLHEXANOICOXYMETH YL)-4-(4′-N,N- DIMETHYLAMINOMETHYLENE- CYTOSIN-1′-YL)-1,3- DIOXOLANE], the IC50 in test [2] (setting [8]) was found to be 18 nM; in test [2] (setting [9]), 27 nM; in test [3] (setting [11]), 15 nM; in test [3] (setting [12]) it was 17 nM; in test [4] (setting [10]), 130 nM; in test [4] (read-out: IC50 SF-268 24 h, 24 h drug exposure, wash, another 48 hr) it was 75 nM. Moreover, the IC50 in test [1] (setting [7]) stood at 23000 nM.

As for `CCCCCCN(CCCCCC)C(=O)OC[C@H]1OC[C@@H](n2ccc(N)nc2=O)O1` [Compound 135, DIHEXYLCARBAMIC ACID 4(S)-(4′-AMINO-2′-OXO- 2H-PYRIMIDIN-1′-YL)- [1,3]DIOXOLAN-2(S)- YLMETHYL ESTER], the IC50 in test [4] (setting [10]) came out at 250 nM.

For the compound `CC(CCCCN(Cc1ccccc1)C(=O)OC(C)(C)C)C(=O)OC[C@H]1OC[C@@H](n2ccc(/N=C/N(C)C)nc2=O)O1` (stereo partly drawn) [Compound 149, 6-(Benzyl-tert-butoxycarbonyl-amino)-methyl-hexanoic acid 4-[4-(dimethylamino-methyleneamino)-2-oxo-2H-pyrimidin-1-yl]-[1,3]dioxolan-2-ylmethyl ester], the IC50 was below 0.1 nM in test [5] (setting [13]), 0.12 nM in test [5] (setting [14]), 2000 nM in test [1] (setting [7]) and above 1800 nM in test [1] (setting [15]).

As to `CC(C)(C)C(=O)OC[C@H]1OC[C@@H](n2ccc(N)nc2=O)O1` [Compound 279, 2,2-DIMETHYL-PROPIONIC ACID 4-(4-AMINO-2-OXO- 2H-PYRIMIDIN-1-YL)- [1,3]DIOXOLAN-2-YL METHYL ESTER], the IC50 is 580 nM in test [2] (setting [8]); 73 nM in test [2] (Homo sapiens, NCI-H460, read-out: IC50 H-460 (72 h), 72 h exposure); 240 nM in test [3] (setting [11]); 21 nM in test [3] (Homo sapiens, MCF7, read-out: IC50 MCF-7 (72 h), 72 h exposure); 390 nM in test [4] (setting [10]); 44 nM in test [4] (Homo sapiens, SF-268, read-out: IC50 SF-268 (72 h), 72 h exposure).

Turning to `CC(C)[C@@H]1CC[C@@H](C)C[C@H]1OC(=O)OC[C@H]1OC[C@@H](n2ccc(N)nc2=O)O1` [Compound 95, Carbonic acid 4-(4-amino-2-oxo-2#H!- pyrimidin-1-yl)-[1,3]dioxolan-2-ylmethyl ester 2-isopropyl-5-methyl-cyclohexyl ester], the IC50 in test [2] (setting [8]) is below 0.1 nM; in test [3] (setting [11]), 150 nM; in test [3] (setting [12]), 100 nM.

As to `CC(C)(C)OC(=O)N(CCCCCC(=O)OC[C@H]1OC[C@@H](n2ccc(N)nc2=O)O1)Cc1ccccc1` [Compound 66, 6-(Benzyl-tert-butoxycarbonyl-amino)-hexanoic acid 4-(4-amino-2-oxo-2H-pyrimidin-1-yl)-[1,3]dioxolan-2-ylmethyl ester], the IC50 in test [3] (setting [11]) was below 0.1 nM; in test [3] (setting [12]), 0.074 nM.

Turning to `CC(C)c1ccc(NC(=O)OC[C@H]2OC[C@@H](n3ccc(N)nc3=O)O2)cc1` [Compound 127, (4-ISOPROPYL-PHENYL)- CARBAMIC ACID 4-(4- AMINO-2-OXO-2H- PYRIMIDIN-1-YL)- [1,3]DIOXOLAN-2- YLMETHYL ESTER], the IC50 in test [3] (setting [11]) was 16000 nM; in test [3] (setting [12]) it was 15000 nM; in test [5] (setting [13]), 15000 nM; in test [5] (setting [14]) it was 22000 nM; in test [1] (setting [7]) it was above 100000 nM.

For the compound `CC(C)(C(=O)Nc1ccn([C@@H]2CO[C@H](CO)O2)c(=O)n1)c1ccccc1[N+](=O)[O-]` [Compound 60, (2S,4S)--2- HYDROXYMETHYL-4-N-[2″- (2″′-NITROPHENYL)-2″- METHYLPROPIONYL]- CYTOSINE-1′-YL-1,3- DIOXOLANE], the IC50 in test [2] (setting [8]) came out at 2000 nM; in test [2] (setting [9]), 3100 nM; in test [3] (setting [11]), 860 nM; in test [3] (setting [12]), 950 nM; in test [5] (setting [13]), 290 nM; in test [5] (setting [14]) it was 310 nM. In addition, the figures for the IC50 in test [1] (setting [7]) and in test [1] (setting [15]) were 2900 nM and 1800 nM, respectively.

Regarding `CC(C)[C@@H]1CC[C@@H](C)C[C@H]1OC(=O)Nc1ccn([C@@H]2CO[C@H](CO)O2)c(=O)n1` [Compound 94, [1-(2-Hydroxymethyl-[1,3]dioxolan-4-yl)-2-oxo-1,2-dihydro-pyrimidin-4-yl]-carbamic acid 2-isopropyl-5-methyl-cyclohexyl ester], the IC50 in test [3] (setting [11]) turned out to be 24000 nM; in test [3] (setting [12]) it was 13000 nM; in test [1] (setting [7]), 51000 nM; in test [1] (setting [15]) it was 85000 nM.

For `CC(C)(C(=O)OC[C@H]1OC[C@@H](n2ccc(N)nc2=O)O1)c1ccccc1[N+](=O)[O-]` [Compound 155, (2S,4S)-2-[2″-(2″′- NITROPHENYL)-2″- METHYLPROPIONYLOXYMETHY L]-4-CYTOSIN-1′-YL-1,3- DIOXOLANE], in test [1] (setting [7]), the IC50 is above 100000 nM.

For `CCCCNC(=O)OC[C@H]1OC[C@@H](n2ccc(N)nc2=O)O1` [Compound 48, BUTYL-CARBAMIC ACID 4- (4-AMINO-2-OXO-2H- PYRIMIDIN-1-YL)- [1,3]DIOXOLAN-2- YLMETHYL ESTER], the IC50 in test [2] (setting [8]) is 340 nM; in test [2] (setting [9]), 590 nM; in test [1] (setting [7]), above 100000 nM.

Consider `CN(C)/C=N/c1ccn([C@@H]2CO[C@H](COC(=O)C(C)(C)CCC(=O)N(Cc3ccccc3)C(=O)OC(C)(C)C)O2)c(=O)n1` [Compound 166, 5-(Benzyl-tert-butoxycarbonyl-amino)-2,2-dimethyl-5-oxo-pentanoic acid 4-[4-(dimethylamino-methyleneamino)-2-oxo-2H-pyrimidin-1-yl]-[1,3]dioxolan-2-ylmethyl ester], for which the IC50 in test [6] came out at 10 µM.

Turning to `CCCCCCOC(=O)Nc1ccn([C@@H]2CO[C@H](CO)O2)c(=O)n1` [Compound 61, [1-(2-HYDROXYMETHYL- [1,3]DIOXOLAN-4-YL)-2- OXO-1,2-DIHYDRO- PYRIMIDIN-4-YL]- CARBAMIC ACID HEXYL ESTER], the IC50 in test [1] (setting [7]) was above 100000 nM.

Turning to `Nc1ccn([C@@H]2CO[C@H](COCc3ccccc3)O2)c(=O)n1` [Compound 98, (2S,4S) 4-AMINO-1-(2- BENZYLOXYMETHYL- [1,3]DIOXOLAN-4-YL)-1H- PYRIMIDIN-2-ONE], the IC50 in test [3] (setting [11]) was 130 nM; in test [3] (setting [12]), 150 nM and 220 nM; in test [1] (setting [7]), above 100000 nM.

With `CCCCOC(C)OC[C@H]1OC[C@@H](n2ccc(N)nc2=O)O1` (stereo partly drawn) [Compound 97, 4-AMINO-1-[2-(1-BUTOXY- ETHOXYMETHYL)- [1,3]DIOXOLAN-4-YL]-1H- PYRIMIDIN-2-ONE], the IC50 in test [2] (setting [8]) was 22000 nM; in test [3] (setting [11]), 5000 nM; in test [3] (setting [12]), 4000 nM; in test [5] (setting [13]), 9200 nM; in test [5] (setting [14]), 5900 nM; in test [1] (setting [7]), above 100000 nM.

On to `CCCCC(C)C(=O)Nc1ccn([C@@H]2CO[C@H](CO)O2)c(=O)n1` (stereo in doubt) [Compound 96, 2-METHYL-HEXANOIC ACID [1-(2-HYDROXYMETHYL- [1,3]DIOXOLAN-4-YL)-2- OXO-1,2-DIHYDRO- PYRIMIDIN-4-YL]-AMIDE], for which the IC50 in test [3] (setting [11]) was 190 nM; in test [3] (setting [12]), 210 nM; in test [5] (setting [13]) it was 1800 nM; in test [5] (setting [14]), 1900 nM; in test [1] (setting [7]) it was above 100000 nM.

These data come from US20030013660A1, “Dioxolane analogs for improved inter-cellular delivery” (Shire BioChem Inc., priority 2000, published 2003).
